9 molecules from EP0200565A2, “Method for production of peroxidase” (NISSIN FOOD PRODUCTS CO., LTD., priority 1985, dated 1986) can be followed below.

The test system of the first assay is peroxidase. The assay can be described thus: Activity of the isolated peroxidase towards various hydrogen donors. It is filed as biochemical, Coprinus cinereus IFO 30116.
Conditions: not given
As for the experimental part:
Its action is shown by the followina reaction formula: [drawing 2] where AH2 is a hydrogen donor, and A is the oxidized hydrogen donor.
The enzyme was assayed for activity with respect to a variety of hydrogen donors.
Values snown in Taoie 2 are relative ones with that of phenol set at 100%.
Turning to `Cc1cc(-c2ccc(N)c(C)c2)ccc1N` [o-tolidine], the “Strength of Action” value was determined as 5400%.

The assay is the same for the next values; noted with them: relative values with that of phenol set at 100%; peroxidase of Coprinus cinereus IFO 30116.
Take `Oc1ccccc1O` [Catechol]: the “Strength of Action” value came out at 460%.
In the case of `COc1ccccc1O` [Guaiacol], the “Strength of Action” value is listed as 200%.
Still for that read-out and setting: to `Oc1ccc(O)cc1` [Hydroquinone] belongs 57%.
Consider `Oc1ccccc1` [Phenol], for which the “Strength of Action” value is recorded as 100 (%).
On the same count and under the same terms, the result for `Oc1cccc(O)c1` [Resorcinol] reads 0%; that for `COc1cc(-c2ccc(N)c(OC)c2)ccc1N` [o-dianisidine], 5400%.
Consider `Oc1cccc2ccccc12` [α-naphthol], for which the “Strength of Action” value was determined as 1200%.
On to δ-hydroquinon, for which the “Strength of Action” value is recorded as 57%.
